Reference: patent US20120283120A1, “SCREENING METHOD” (Takeda Pharmaceutical Company Limited, priority 2009, published 2012)

Columns and labels:
Format in all cases: cell-based, human
[1] = tested on: 4 kinds of ARaiv1 clones (ARaiv1, ARaiv1Δ1, ARaiv1Δ2, ARaiv1Δ3); test: reporter gene assay of ARaiv1 clones with pGL3-2×PSA reporter in COS7 cell (luciferase); conditions: bicalutamide added 24 hr after cotransfection, luciferase assay 24 hr later
Experimental: The above-mentioned 4 kinds of ARaiv1 clones (ARaiv1 and ARaiv1Δ1, ARaiv1Δ2 and ARaiv1Δ3) were respectively subcloned to a pcDNA3.1 expression vector, and the transcription activity was examined by a reporter gene assay. The ARaiv1 clone expression vector and pGL3-2×PSA reporter were cotransfected into COS7 cell. After 24 hr, DHT or an AR antagonist bicalutamide, was added, and 24 hr later, a luciferase assay was performed.

JDCaP-hr cells = test: JDCaP-hr cell proliferation after siRNA transfection; conditions: cultured for 5 days; for growth promotion due to DHT: DHT added; for cell proliferation (growth inhibition): androgen-free conditions
Experimental: siRNA targeting AR-specific exon 8 (siAR), siRNA targeting ARaiv1-specific exon 4b (siARaiv1) or siRNA targeting exon 1 common to the both (siDual) was transfected into JDCaP-hr cells, the cells were cultured for 5 days in an androgen-free medium added with DHT or DMSO, and the cell proliferation was measured (FIG. 7). […] On the other hand, the growth inhibitory effect was partial in the siAR transfection group.

full-length AR = test: Western blotting of AR production after siRNA transfection in JDCaP-hr cells; conditions: 48 hr from siRNA transfection
From the text: (§1) An siRNA targeting exon 4b specific to ARaiv1 (siARaiv1: 5′-[…]-3′ (SEQ ID NO: 29)) was designed and synthesized by Qiagen. In addition, an siRNA targeting exon 8 specific to AR (siAR: Hs_AR—6_HP Validated siRNA: 5′-[…]-3′ (SEQ ID NO: 30)) and an siRNA cocktail containing siRNA targeting exon 1 common to AR and ARaiv1 (siDual: OTP SMART pool, L-003400-00-0005) were purchased from Qiagen and Dharmacon, respectively. siAR, siARaiv1 or siDual was transfected into JDCaP-hr cells. RNA was extracted from the cells after 48 hr from the siRNA transfection, and the expression level of the target gene was analyzed by quantitative RT-PCR. As a result, it was confirmed that gene knockdown by each siRNA was carried out sufficiently efficiently (FIG. 6a). To examine changes in the C-terminally defective-type AR protein production, which were caused by the ARaiv1 knockdown, an extract was prepared from the cells after 48 hr from the siRNA transfection, and the production of AR and β-actin was examined by Western blotting. The production of only full-length AR in the siAR transfection group, only C-terminally defective-type AR in the siARaiv1 transfection group, and the both in the siDual transfection group decreased (FIG. 6b).

[2] = tested on: C-terminally defective-type AR; test: as above; conditions: 48 hr from siRNA transfection
From the text: as §1

22Rv1 cells = test: colony formation assay of 22Rv1 cells after shRNA expression vector transfection; conditions: androgen-free conditions
From the text: Expression plasmids of shRNA targeting AR-specific exon 8 (shAR), shRNA targeting ARaiv1-specific exon 4b (shARaiv1) and shRNA targeting exon 1 common to the both (shDual) were constructed using siSTRIKE U6 hairpin cloning system (Promega). The target sequences of shAR and siARaiv1 were the same as those of the above-mentioned siAR and siARaiv1. As the target sequence of shRNA specific to exon 1 (shDual), the sequence of exon 1-specific siRNA (5′-[…]-3′ (SEQ ID NO: 31)) contained in siDual was used.
The expression vector of shAR, siARaiv1 or shDual was transfected into 22Rv1 cells, and a colony formation assay was carried out under androgen-free conditions. In the siARaiv1 transfection group, the number of colonies decreased to 19% of that of the non-specific shRNA (shNS) transfection group (NS group). In the shDual transfection group, the number of colonies decreased to 4% of that of the NS group, and remarkable suppression of colony formation was observed. On the other hand, the colony formation ability of the shAR transfection group was 54% of the NS group, and the decrease was weaker as compared to the ARaiv1 knockdown group.

Compound | transcription activity of 4 kinds of ARaiv1 clones (reporter activity) [1] | growth promotion due to DHT (JDCaP-hr cells) | cell proliferation (growth inhibition) (JDCaP-hr cells) | production of full-length AR (full-length AR) | production of C-terminally defective-type AR [2] | number of colonies relative to non-specific shRNA (NS) group (22Rv1 cells) [%]
CC(O)(CS(=O)(=O)c1ccc(F)cc1)C(=O)Nc1ccc(C#N)c(C(F)(F)F)c1 (centres unmarked) [bicalutamide] | not inhibited | – | – | – | – | –
siAR: siRNA targeting exon 8 specific to AR, Hs_AR—6_HP Validated siRNA: 5′-ggaacucgaucguaucauu-3′ (SEQ ID NO: 30) (GGAACUCGAUCGUAUCAUU; chemistry not given here) | – | remarkably inhibited | partial | decreased | – | –
siARaiv1: siRNA targeting exon 4b specific to ARaiv1: 5′-gattgttcttgatcacata-3′ (SEQ ID NO: 29) (GATTGTTCTTGATCACATA; listed as DNA, chemistry not given here) | – | growth promotion due to DHT was observed | remarkable growth inhibition | – | decreased | 19
